Laboratory results published in patent US6194411A, “3(2H)-pyridazinone derivatives and pharmaceutical compositions containing these compounds” (priority 1995, dated 2001).
Where two headings read alike, the source gives them in different places.

Legend:
[1] = tested on: phenylephrine-induced intraurethral hypertension; assay: phenylephrine-induced intraurethral hypertension in anaesthetized cats; assay type: in vivo, cat; conditions: for ED50: Felis catus, phenylephrine 15 μg/kg/min intravenous, read-out: ED50 urethra (dose decreasing by 50% the hypertension induced by phenylephrine); for ED50 / D/U: ED50 (diastolic pressure)/ED50 (urethra): iv., anaesthetized cat; for D/U: ED50 (diastolic pressure)/ED50 (urethra): urogenital selectivity; for urogenital selectivity (in words): in vivo
Description: (§1) In an in vivo animal model, in anaesthetized cat, intraurethral hypertension can be induced by α1 -adrenoceptor agonists [e.g. phenylephrine, which is chemically (-)-1-(3-hydroxyphenyl)-2-(methylamino)ethanol]. This hypertension-inducing effect can be antagonized by α1 -adrenoceptor antagonists. The antihypertensive effect is expressed by reduction of the diastolic pressure. Results of this experiment are summarized in Table 1 (the experiment is described in detail in the Pharmacological part).
^a Dose decreasing by 50% the hypertension induced by a 15 μg/kg/min
(§2) Effect on the intraurethral and diastolic blood pressure on anaesthetized cats
(§3) This investigation was performed according to the method of Lefevre et al. [Br. J. Pharmacol. 109, 1282 (1993)]. The essence of the method can be summarized as follows.
(§4) Cannules were introduced into the femoral artery and vein of pentobarbitone-anaesthetized, artificially ventilated cats of both sexes weighing 2.5 to 3.5 kg for administration of the compounds and measurement of blood pressure. The bladder was exposed by lower median laporotomy and a catheter was introduced into the urethra through the trigonum. The arterial and intraurethral pressures were registered on a Hellige polygraph by using a pressure transducer.
(§5) For excluding autonomic effects mediated not through α-adrenoceptors,mecamylamine, atropine and propranolol were administered intravenously in doses of 0.5, 0.75 and 0.5 mg/kg, respectively.
(§6) An increase in intraurethral and blood pressure was induced by phenylephrine infusion of 15 μg/kg/min; the change over the baseline pressure was considered to be 100%. The test substances were administered intravenously in 1-1000 μg/kg cumulative bolus doses. An interval of at least 5 minutes was allowed after each dose. The dose of α-antagonist inhibiting by 50% the phenylephrine-induced increase in urethral pressure ([…] uretha) as well as the dose […] by 50% the phenylephrine-induced diastolic total pressure elevation (ED50 diastolic value) were determined.

diastolic pressure = assay: phenylephrine-induced diastolic blood pressure increase in anaesthetized cats; assay type: in vivo, cat; conditions: for ED50: Felis catus, iv., anaesthetized cat, phenylephrine 15 μg/kg/min, read-out: ED50 diastolic pressure (dose decreasing by 50% the diastolic total pressure increased by phenylephrine); for influence on other cardiovascular parameters (in words): doses that diminish the intraurethral pressure
Description: as §1
^b Dose decreasing by 50% the diastolic total pressure increased by
as §2, §3, §4, §5, §6

[2] = tested on: α1-adrenoceptor (mesenteric artery); assay: isolated organ: postsynaptic α1-adrenoceptor antagonism on mesenteric artery; parameters: species or system rat; conditions: agonist phenylephrine; 37° C; 30-minute incubation with antagonist
Protocol: (§7) In addition, investigations were performed on blood vessel and human hyperplasic prostate tissue preparations. In these experiments, a mesenteric artery was used as a model of resistance vessels which affect the blood pressure. We measured the extent of inhibition of the compounds of the invention and that of the reference drugs, respectively, on the contraction-inducing action of the α1 -agonist (phenylephrine).The α1 -adrenoceptor antagonism was then characterized by pA2 values.
(§8) α1 -Adrenoceptor antagonistic effect in isolated organ experiments
A) Investigation of postsynaptic α1 -adrenoceptors on the rate mesenteric artery
This test was performed according to the method of Angus et al. [J. Physiol.

[3] = target: T1, α1-adrenoceptor (human hyperplasic prostate tissue) (Homo sapiens, UniProt P35348); assay: isolated organ: postsynaptic α1-adrenoceptor antagonism on human hyperplasic prostate tissue; conditions: agonist phenylephrine; 37° C; 30 minutes incubation with antagonist; read-out: pA2 human hyperplasic prostate tissue (converted)
T1 construct: Strips prepared from human hyperplasic prostate tissue; from tissue; host or cells: human hyperplastic prostate strips
T1 sequence (P35348 1-466): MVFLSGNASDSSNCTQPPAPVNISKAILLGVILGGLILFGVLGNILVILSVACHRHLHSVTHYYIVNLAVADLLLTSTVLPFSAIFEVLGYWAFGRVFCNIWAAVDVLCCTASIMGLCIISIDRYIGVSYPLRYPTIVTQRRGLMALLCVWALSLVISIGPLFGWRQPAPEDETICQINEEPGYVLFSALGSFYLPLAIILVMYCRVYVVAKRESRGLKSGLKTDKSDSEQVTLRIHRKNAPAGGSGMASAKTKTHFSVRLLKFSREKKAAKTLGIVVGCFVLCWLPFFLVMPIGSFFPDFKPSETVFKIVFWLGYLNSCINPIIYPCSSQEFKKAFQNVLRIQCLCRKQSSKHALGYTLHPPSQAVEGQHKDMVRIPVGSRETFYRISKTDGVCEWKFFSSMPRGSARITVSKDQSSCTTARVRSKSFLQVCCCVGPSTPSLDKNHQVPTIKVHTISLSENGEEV
Protocol: as §7, §8
(§9) B) Investigation of postsynaptic α1 -adrenoceptors on human prostate preparation
(§10) This test was performed according to the method of Scheu-Eei Yu et al. [Eur. J. Pharmacol. 252, 29 (1994)].
(§11) Strips prepared from human hyperplasic prostate tissue were suspended in a Krebs solution bubbled with carbogen at 37° C. A pre-tension of 1 g and an equilibration period of 1 hour were used. A dose-effect curve was established for phenylephrine. Then, after washing out and incubation with the antagonist for 30 minutes, the dose/effect curve was again determined. For characterizing the antagonistic effects, pA2 values were calculated.

[4] = tested on: α1-adrenoceptor (human hyperplasic prostate tissue); assay: as above; conditions: for Selectivity (prostate/artery): antilogarithmic ratio of pA2 value, human prostate vs rat mesenteric artery; for α1-adrenoceptor antagonistic effect (in words): Table 2 data, prostate tissue and resistance artery
Protocol: as §7, §8, §9, §10, §11

[5] = target: T2, presynaptic α2-adrenoceptor (vas deferens) (Rattus norvegicus, UniProt P22909); assay: presynaptic α2-adrenoceptor antagonism on rat vas deferens preparation; conditions: agonist xylazine, 35° C, electrically stimulated, read-out: pA2 presynaptic (converted)
T2 construct: Vas deferents were isolated from SPRD rats; from tissue; host or cells: vas deferens of SPRD rats, electrically stimulated
T2 sequence (P22909 1-465): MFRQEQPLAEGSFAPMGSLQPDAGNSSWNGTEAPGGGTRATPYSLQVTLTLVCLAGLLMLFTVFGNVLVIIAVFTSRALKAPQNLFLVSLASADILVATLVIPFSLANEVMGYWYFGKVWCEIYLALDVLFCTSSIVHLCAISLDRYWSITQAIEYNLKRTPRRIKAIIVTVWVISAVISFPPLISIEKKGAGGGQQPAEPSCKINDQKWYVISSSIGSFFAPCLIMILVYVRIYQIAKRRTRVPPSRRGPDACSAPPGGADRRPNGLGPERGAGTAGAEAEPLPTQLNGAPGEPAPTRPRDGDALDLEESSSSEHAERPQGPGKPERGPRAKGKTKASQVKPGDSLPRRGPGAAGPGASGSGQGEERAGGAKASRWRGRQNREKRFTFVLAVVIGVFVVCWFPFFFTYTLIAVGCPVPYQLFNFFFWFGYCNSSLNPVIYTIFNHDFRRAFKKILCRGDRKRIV
Protocol: (§12) The antagonism was characterized by the pA2 values.
Pre- and postsynaptic α1 -adrenoceptor antagonistic effects
A) Presynaptic α2 -adrenoceptor antagonism on the rat vas deference preparation
Briefly, the experiment was performed as follows.
Vas deferents were isolated from SPRD rats according to Vizi et al. [N. S. Arch. Pharmcol.
A dose/effect curve was determined for xylazine. Then, after washing out, the organ was incubated with the antagonist. The dose/effect curve was taken again with xylazine in the presence of the antagonist. The antagonism was characterized by the pA2 value determined according to the method of Arunlakshana and Schield [Br. J. Pharmcol.

[6] = target: T3, postsynaptic α2-adrenoceptor (vena saphena) (Canis lupus familiaris, UniProt A0A8I3Q7S8); assay: postsynaptic α2-adrenoceptor antagonism in dog vena saphena preparation
T3 construct: Postsynaptic α2 -adrenoceptor antagonism in dog vena saphena preparation; from tissue; host or cells: dog saphenous vein
T3 sequence (A0A8I3Q7S8 1-427): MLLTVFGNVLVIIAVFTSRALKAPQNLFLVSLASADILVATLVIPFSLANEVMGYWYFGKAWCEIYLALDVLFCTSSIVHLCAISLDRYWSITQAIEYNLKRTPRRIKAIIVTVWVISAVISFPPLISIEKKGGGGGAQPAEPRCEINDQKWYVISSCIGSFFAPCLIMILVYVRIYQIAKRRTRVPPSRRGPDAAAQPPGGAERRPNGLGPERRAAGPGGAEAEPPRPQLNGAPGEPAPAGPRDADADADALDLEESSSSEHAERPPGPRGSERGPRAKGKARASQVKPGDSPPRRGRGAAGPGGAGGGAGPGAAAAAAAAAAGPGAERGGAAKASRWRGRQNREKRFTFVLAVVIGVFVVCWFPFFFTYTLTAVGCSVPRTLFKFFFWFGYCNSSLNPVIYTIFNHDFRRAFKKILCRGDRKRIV
Protocol: as §12
(§13) B) Postsynaptic α2 -adrenoceptor antagonism in dog vena saphena preparation
(§14) This investigation was carried out by the method of Fowler et al. [J. Pharmcol.
(§15) β-Adrenoceptors were inactivated with propranolol. […] After 30 minutes, the organs were incubated with the […] for 30 minutes. Also here, the antagonism was characterized by the pA2 values.

[7] = tested on: postsynaptic α2-adrenoceptor (vena saphena); assay: as above; conditions: for selectivity toward the postsynaptic α2-receptors (in words) / α2-adrenoceptor antagonistic activity (in words): Table 3 data; for Selectivity postsynaptic/presynaptic: antilogarithmic ratio of pA2 values, dog vena saphena vs rat vas deferens
Protocol: as §12, §13, §14, §15

[8] = toxicity (statement, no test described)
[9] = background; cited from earlier work
[10] = dog vena saphena, agonist UK 14304, 30 minutes incubation, read-out: pA2 postsynaptic (converted)

SMILES	ED50 [1]	D/U: ED50 (diastolic pressure)/ED50 (urethra) [1]	ED50 (diastolic pressure)	pA2 rat mesenteric artery [2]	Kb [3]	Selectivity (prostate/artery) [4]	urogenital selectivity (in words) [1]	influence on other cardiovascular parameters (in words) (diastolic pressure)	α1-adrenoceptor antagonistic effect (in words) [4]	Kb [5]	Kb [6, 10]	selectivity toward the postsynaptic α2-receptors (in words) [7]	α2-adrenoceptor antagonistic activity (in words) [7]	Selectivity postsynaptic/presynaptic [7]	toxicity (in words) [8]	urogenital selectivity of available drugs (in words) [9]	Kb [6]
O=c1cccnn1CCCNCC1COc2ccccc2O1 (racemic) [(3), 2-[3-([1,4]benzodioxan-2-ylmethylamino)-1-propyl]-3(2H)-pyridazinone, reference compound]	0.0284 mg/kg	4.6	0.13 mg/kg	7.16	30.9 nM	2.24	–	–	–	–	–	–	–	–	–	–	–
O=c1cccnn1CCCNC[C@@H]1COc2ccccc2O1 [(1), R-2-[3-([1,4]-benzodioxan-2-ylmethylamino)-1-propyl]-3(2H)-pyridazinone]	0.0139 mg/kg	> 63.9	> 0.888 mg/kg	6.56	63.1 nM	4.37	significant urogenital selectivity	very weak influence only on other cardiovascular parameters	strong α1 -adrenoceptor antagonistic effect	1550 nM	13.5 nM	excellent selectivity toward the postsynaptic α2 -receptors	strong α2 -adrenoceptor antagonistic activity	115.0	low toxicity	–	–
O=c1cccnn1CCCNC[C@H]1COc2ccccc2O1 [(2)]	0.0034 mg/kg	26.5	0.09 mg/kg	7.68	5.89 nM	3.55	significant urogenital selectivity	very weak influence only on other cardiovascular parameters	strong α1 -adrenoceptor antagonistic effect	155 nM	7.24 nM	excellent selectivity toward the postsynaptic α2 -receptors	strong α2 -adrenoceptor antagonistic activity	21.4	low toxicity	–	–
COc1cc2nc(N(C)CCCNC(=O)C3CCCO3)nc(N)c2cc1OC (stereo not shown) [Alfuzosin]	–	–	–	8.60	–	–	–	–	–	–	–	–	–	–	–	–	–
COc1cc2nc(N3CCN(C(=O)c4ccco4)CC3)nc(N)c2cc1OC [Prazosin, reference compound]	0.0187 mg/kg	1.3	0.025 mg/kg	–	–	–	–	–	–	–	–	–	–	–	–	low or moderate	–
COc1cc2nc(N3CCN(C(=O)C4CCCO4)CC3)nc(N)c2cc1OC (stereo not shown) [Terazosin]	–	–	–	8.45	–	–	–	–	–	–	–	–	–	–	–	–	–
COC(=O)[C@@H]1[C@H]2C[C@H]3c4[nH]c5ccccc5c4CCN3C[C@@H]2CC[C@@H]1O [Yohimbine, reference compound]	–	–	–	–	–	–	–	–	–	–	–	–	–	–	–	–	8.91 nM
